Test results: patent US20080207673A1, “Method for Treating Cancer, Coronary, Inflammatory and Macular Disease, Combining the Modulation of Zinc-and/or Copper Dependent Proteins” (priority 2005, published 2008)

Columns and labels:
HCV RNA Replicons = assay: HCV RNA replicon antiviral activity testing (luciferase); type: cell-based, Hepatitis C virus; settings: for inhibition at 20 µM: Hepatitis C virus, 20 micromolar, read-out: Antiviral Activity (luciferase, percent inhibition of virus control)
[1] = brain; cited from earlier work
[2] = cited from earlier work
hepatitis B (HBV) = assay: NIH hepatitis B screening; type: cell-based, hepatitis B virus; settings: negative because of cytotoxicity of the cell line used
Description: The HBV research is run by the University of Georgetown (Dr. Brent Korba). The results with HBV were negative at this point because of cytotoxicity of the cell line used.

Huh7 ET = assay: Cytotoxicity in the HCV replicon cell line (actively dividing cells); type: cell-based; settings: single high test concentration, 20 micromolar
Description: The cell line used was Huh7 ET.

PC12 cells = assay: MTT reduction, Aβ (25-35) induced toxicity in PC12 cells; type: cell-based, Rat; settings: 10 μg phanquinone per ml
Experimental: Aβ (25-35) was delivered by Bachem (CH) or Sigma (USA) and dissolved in phosphate buffered saline (PBS) at pH 7, 4, 2 hours prior to application.
Rat PC12 pheochromocytoma cells were grown in Dulbecco's modified Eagle's medium (DMEM) containing 1% penicillin-streptomycin, 5% fetal calf serum and 10% horse serum in humidified incubator with 5% CO2.
PC12 cells were plated on 96-wells microtiter plates in 100 μl of the appropriate medium. After 24 hours the indicated concentrations of Aβ (25-35) peptide was added alone or together with phanquinone in the designated concentrations. Incubation continued for 24 hours. Following incubation, MTT reduction was measured using a commercially available assay according to the manufacturer's (Boehringer Mannheim) instructions. Assay values obtained by vehicle alone were defined as 100%.
MTT is a substrate for intracellular and plasma membrane oxidoreductases and has been widely used to measure reductions of cell redox activity.
To test the effect of phanquinone on Aβ (25-35) induced toxicity in PC12 cells, PC12 cells were exposed to Aβ (25-35) peptide concentrations ranging from 0 to 10 μM. In the absence of phanquinone (i.e. only vehicle added) Aβ (25-35) produced a dose-dependent inhibition of MTT reduction. […]

Aβ (1-40) = biological target: T1, Aβ (1-40) (Homo sapiens, UniProt P05067); assay: Thioflavin T fluorometric assay of metal-ion induced Aβ aggregation; type: biochemical; settings: test compound 10 μg/ml, 24 hours
T1 construct: A 5 mg/ml stock solution of Aβ (1-40) (delivered from Bachem (CH)); purchased Bachem (CH)
T1 sequence (P05067 672-711 limits assumed): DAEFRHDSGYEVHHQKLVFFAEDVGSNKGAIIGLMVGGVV
Experimental: A 5 mg/ml stock solution of Aβ (1-40) (delivered from Bachem (CH)) was freshly prepared before each experiment by dissolving the lyophilized peptide in 0.01 M HCl, followed by subsequent dilution 1.1 with 0.01 M NaOH to yield a neutral pH. Aliquot of Aβ (1-40) were diluted in PBS (pH 7.4) to 100 [mu]M and incubated at a total volume of 30 μ/l for 24 hours at room temperature. For co-incubation experiments, the indicated concentrations of metal ions and/or aliquot of test compounds were added. The test compounds were added to a final molar concentration of 10 μg/ml.
The amyloid formation was quantified by a thioflavin T fluorometric assay. Thioflavin binds specifically to amyloid and this introduces a shift in its emission spectrum and a fluorescent signal proportional to the amount of amyloid is formed. After incubation, Aβ (1-40) peptides were added to PBS (pH 6.0) and 3 μM thioflavin T in a final volume of 1 ml. Fluorescence was monitored at excitation 454 nm and emission 482 nm using a Fluoroscan II fluorometer (Molecular devices, UK). A time scan of fluorescence was performed and three values after the decay reached a plateau (around 5 minutes) were averaged after subtracting the background fluorescence of 3 μM thioflavin T. For co-incubation experiments, fluorescence of test compound alone was determined. Samples were run in triplicate.
It was studied whether the two compounds had any effect on metal-ion catalysed Aβ aggregation, especially the aggregation caused by Zn and Cu.

MMP-2 = biological target: T2, MMP-2 (Homo sapiens, UniProt P08253); assay: MMP enzyme assay, fluorometric; type: biochemical
T2 sequence (P08253 110-660): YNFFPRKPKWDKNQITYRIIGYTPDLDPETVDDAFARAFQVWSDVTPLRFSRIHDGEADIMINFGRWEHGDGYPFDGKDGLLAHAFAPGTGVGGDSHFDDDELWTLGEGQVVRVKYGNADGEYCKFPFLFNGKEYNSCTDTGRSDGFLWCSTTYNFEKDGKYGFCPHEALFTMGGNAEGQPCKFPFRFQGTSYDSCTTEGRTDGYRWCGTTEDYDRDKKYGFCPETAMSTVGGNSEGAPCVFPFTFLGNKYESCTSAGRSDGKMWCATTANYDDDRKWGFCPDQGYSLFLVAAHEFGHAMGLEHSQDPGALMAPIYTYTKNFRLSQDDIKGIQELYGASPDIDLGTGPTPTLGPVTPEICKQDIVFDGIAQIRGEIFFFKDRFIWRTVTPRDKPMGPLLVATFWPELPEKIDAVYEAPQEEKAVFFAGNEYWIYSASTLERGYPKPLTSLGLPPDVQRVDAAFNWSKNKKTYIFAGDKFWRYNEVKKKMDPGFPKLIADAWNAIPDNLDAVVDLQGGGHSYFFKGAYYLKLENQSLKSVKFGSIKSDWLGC
Experimental: (§1) An enzyme assay was conducted with five of the enzymes belonging to the MMP group. Specifically, the assay was conducted for MMP-1, MMP-2, MMP-3, MMP-7, and MMP-9 at various concentrations.
(§2) A test substrate of Mca-Pro-Leu-Gly-Leu-Dpa-Ala-Arg-NH2 was subsequently added to obtain a concentration of 25 μM. MMP-1 was incubated for 2 hours at 37EC, MMP-2 was incubated for 3 hours at 25EC, MMP-3 was incubated for 90 min at 37EC. MMP-7 was incubated for 90 min at 37EC, and MMP-9 was incubated for 2 hours at 25 degrees Celsius. The activity of the enzymes was measured by fluorometric quantisation of Mca-Pro-Leu-Gly-OH.

MMP-1 = biological target: T3, MMP-1 (Homo sapiens, UniProt P03956); assay: MMP enzyme assay, fluorometric; type: biochemical
T3 sequence (P03956 100-469): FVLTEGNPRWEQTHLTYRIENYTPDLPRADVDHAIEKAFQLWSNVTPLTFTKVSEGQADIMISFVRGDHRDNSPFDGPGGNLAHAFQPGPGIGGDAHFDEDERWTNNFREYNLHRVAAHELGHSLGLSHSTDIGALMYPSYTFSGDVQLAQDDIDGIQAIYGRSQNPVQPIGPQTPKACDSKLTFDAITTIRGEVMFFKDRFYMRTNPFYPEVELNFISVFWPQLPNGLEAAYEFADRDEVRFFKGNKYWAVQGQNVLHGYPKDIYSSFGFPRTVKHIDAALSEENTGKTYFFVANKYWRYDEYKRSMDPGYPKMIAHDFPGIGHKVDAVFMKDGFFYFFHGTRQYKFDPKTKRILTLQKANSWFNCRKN
Experimental: as §1, §2

MMP-7 = biological target: T4, MMP-7 (Homo sapiens, UniProt P09237); assay: MMP enzyme assay, fluorometric; type: biochemical
T4 sequence (P09237 95-267): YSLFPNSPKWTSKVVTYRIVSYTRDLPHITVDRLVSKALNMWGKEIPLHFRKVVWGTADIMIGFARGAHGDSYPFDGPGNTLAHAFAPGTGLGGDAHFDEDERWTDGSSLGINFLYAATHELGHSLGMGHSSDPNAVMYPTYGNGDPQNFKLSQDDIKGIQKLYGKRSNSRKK
Experimental: as §1, §2

MMP-3 = MMP-3 (Homo sapiens, UniProt P08254); assay: MMP enzyme assay, fluorometric; type: biochemical
Chain of MMP-3 (P08254 100-477, species assumed): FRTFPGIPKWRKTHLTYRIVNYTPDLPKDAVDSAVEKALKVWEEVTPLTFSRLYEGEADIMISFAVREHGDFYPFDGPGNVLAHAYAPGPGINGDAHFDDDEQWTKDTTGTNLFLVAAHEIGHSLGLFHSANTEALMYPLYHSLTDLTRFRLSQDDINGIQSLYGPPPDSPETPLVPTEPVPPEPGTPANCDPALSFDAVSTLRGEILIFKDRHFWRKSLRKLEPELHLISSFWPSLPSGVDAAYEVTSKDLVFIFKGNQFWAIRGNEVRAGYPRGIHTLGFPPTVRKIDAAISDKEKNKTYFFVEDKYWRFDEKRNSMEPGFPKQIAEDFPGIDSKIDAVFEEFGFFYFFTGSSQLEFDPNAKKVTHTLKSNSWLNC
Experimental: as §1, §2

MMP-9 = MMP-9 (Homo sapiens, UniProt P14780); assay: MMP enzyme assay, fluorometric; type: biochemical
Chain of MMP-9 (P14780 94-707, species assumed): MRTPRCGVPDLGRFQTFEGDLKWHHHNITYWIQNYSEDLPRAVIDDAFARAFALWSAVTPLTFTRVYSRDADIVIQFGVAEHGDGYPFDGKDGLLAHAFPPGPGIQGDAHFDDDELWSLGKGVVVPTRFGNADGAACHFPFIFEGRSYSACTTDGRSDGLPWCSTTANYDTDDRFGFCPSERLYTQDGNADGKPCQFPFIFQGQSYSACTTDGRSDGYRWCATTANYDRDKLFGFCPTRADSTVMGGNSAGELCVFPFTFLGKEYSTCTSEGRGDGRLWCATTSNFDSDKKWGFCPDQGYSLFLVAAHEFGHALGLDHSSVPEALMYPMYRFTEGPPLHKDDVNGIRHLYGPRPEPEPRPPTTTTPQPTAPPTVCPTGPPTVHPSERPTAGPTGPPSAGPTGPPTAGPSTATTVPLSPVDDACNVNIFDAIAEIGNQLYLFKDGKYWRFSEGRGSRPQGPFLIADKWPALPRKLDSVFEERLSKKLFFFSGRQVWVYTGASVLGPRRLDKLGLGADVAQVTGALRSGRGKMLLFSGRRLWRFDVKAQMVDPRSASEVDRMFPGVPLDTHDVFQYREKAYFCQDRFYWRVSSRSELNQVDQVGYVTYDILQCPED
Experimental: as §1, §2

[3] = cited from earlier work; remark: listed apart in the source
[4] = single high test concentration, Huh7 ET

O=C1C(=O)c2ncccc2-c2cccnc21 [Phanquinone, 4,7-phenanthroline-5,6-dione]
inhibition at 20 µM (HCV RNA Replicons; [4]): 83.2% | activity against HCV RNA replicons (HCV RNA Replicons; retest with dose response curve, Huh7 ET): no activity | Comments (screening verdict) (HCV RNA Replicons; [4]): Toxic | Selectivity Index (HCV RNA Replicons; [4]): <1 | ability of copper chelation compared to clioquinol [1]: three times more pronounced | adverse effect on the nervous system ([2]; in vivo): no evidence | deaths, fetal malformations, drug interactions or carcinogenicity related to treatment ([2]; in vivo): no reports | tolerability ([2]; most often 200-400 mg/day for 7 to 10 days): well tolerated | results with HBV (hepatitis B (HBV)): negative | Cytotoxicity (actively dividing cells, percent cell control) (Huh7 ET): 10.5% | inhibition of MTT reduction by Aβ (25-35) (PC12 cells; Aβ 10 μM, 24 hours): around 10% | effect on the toxic effect of Aβ (25-35) (PC12 cells; Aβ as high as 1 μM): completely counteracted | reduction of Cu-induced aggregation of Aβ (1-40) (Aβ (1-40)): 50-60% | reduction of Zn-induced aggregation of Aβ (1-40) (Aβ (1-40)): approximately 10%

Oc1c(I)cc(Cl)c2cccnc12 [Clioquinol, 5-chloro-7-iodo-8-hydroxyquinoline]
inhibition at 20 µM (HCV RNA Replicons; [4]): 82.3% | selectivity index S150 (HCV RNA Replicons; retesting dose response): over 4.8 | selectivity index S190 (HCV RNA Replicons; retesting dose response): 14 | Comments (screening verdict) (HCV RNA Replicons; [4]): Potentially active | inhibition at 100 µM (MMP-2): 28% | inhibition at 1000 µM (MMP-2): 26% | inhibition at 10000 µM (MMP-2): 101% | inhibition at 100 µM (MMP-1): 12% | inhibition at 100 µM (MMP-7): 20% | inhibition at 100 µM (MMP-3): 7% | inhibition at 100 µM (MMP-9): 19% | results with HBV (hepatitis B (HBV)): negative | Cytotoxicity (actively dividing cells, percent cell control) (Huh7 ET): 73.3% | solubility in water [3]: Practically insoluble in water | reduction of Cu-induced aggregation of Aβ (1-40) (Aβ (1-40)): approximately 30% | reduction of Zn-induced aggregation of Aβ (1-40) (Aβ (1-40)): more than 60%
